The values that follow come from BindingDB's records for doi:10.1038/nchembio.2208 (Novartis Pharma, 2016).

In test [1] the target is T1, Kallikrein-7 [37-253,Y180R] (Homo sapiens, UniProt P49862, Y180R).
T1 construct: 37-253
In words: Human KLK7 Fluorescence-Lifetime Assay. The conditions noted are these: pH 5.6; 25 °C. On the procedure: The enzyme reaction was initiated by addition of the substrate Ac-[…]PT14)-Glu-NH2 (0.8 μM; Biosyntan, Berlin, Germany, product BS-#7599). Fluorescence-lifetime measurements were conducted on an Ultra Evolution fluorescence lifetime reader (TECAN, M nnedorf, Switzerland). The excitation light source was a semiconductor laser at 405 nm, producing picosecond light pulses with a selected repetition frequency of 10 MHz. The emission was collected through a 450 nm bandpass filter with 25 nm bandwidth. The measurement time per well was set to 1 s, yielding approximately 1,000 counts in the peak channel. The parameters used as assay readout were the mono-exponential lifetimes.

Test [2] has as its target T2, Complement factor B [470-764] (UniProt P00751).
T2 construct: 470-764
Put plainly: Human FB Proteolysis Assay (ELISA C3a). The conditions noted are these: pH 7.4; 4 °C. On the procedure: The enzyme reaction was started by addition of C3 diluted in the assay buffer to a final concentration of 1 μM.

Test [3] has as its target T3, Complement factor D [24-253] (Mus musculus, UniProt P03953).
T3 construct: 24-253
T3 sequence (P03953 whole entry): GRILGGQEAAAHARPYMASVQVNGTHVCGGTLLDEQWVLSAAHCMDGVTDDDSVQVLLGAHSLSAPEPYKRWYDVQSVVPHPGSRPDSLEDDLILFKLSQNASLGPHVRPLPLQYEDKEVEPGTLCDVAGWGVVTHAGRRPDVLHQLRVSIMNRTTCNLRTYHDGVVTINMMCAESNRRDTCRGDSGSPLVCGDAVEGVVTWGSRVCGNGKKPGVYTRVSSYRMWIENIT
Put plainly: Complement FD Thioesterolysis Assay. The conditions noted are these: pH 7.5; 25 °C.

The target of test [4] is T4, Complement factor D [24-253] (Homo sapiens, UniProt P00746).
T4 construct: 24-253
In words: Complement FD Thioesterolysis Assay. The conditions noted are these: pH 7.5; 25 °C.

T2 sequence (P00751 470-764): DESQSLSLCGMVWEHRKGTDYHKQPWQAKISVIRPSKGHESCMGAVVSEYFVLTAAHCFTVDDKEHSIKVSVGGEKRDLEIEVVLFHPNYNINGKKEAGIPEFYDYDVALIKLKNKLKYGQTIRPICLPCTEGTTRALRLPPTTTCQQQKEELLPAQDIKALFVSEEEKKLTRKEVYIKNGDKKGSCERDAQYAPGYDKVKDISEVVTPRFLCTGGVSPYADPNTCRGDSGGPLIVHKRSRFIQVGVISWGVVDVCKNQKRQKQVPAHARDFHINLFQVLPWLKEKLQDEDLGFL
T1 sequence (P49862 37-253 Y180R): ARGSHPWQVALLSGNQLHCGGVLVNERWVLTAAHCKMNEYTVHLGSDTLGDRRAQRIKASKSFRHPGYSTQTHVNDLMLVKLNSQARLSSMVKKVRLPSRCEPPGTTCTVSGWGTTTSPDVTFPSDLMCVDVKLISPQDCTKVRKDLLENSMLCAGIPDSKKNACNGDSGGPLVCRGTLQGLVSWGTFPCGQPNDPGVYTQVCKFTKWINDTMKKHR
T4 sequence (P00746 24-253): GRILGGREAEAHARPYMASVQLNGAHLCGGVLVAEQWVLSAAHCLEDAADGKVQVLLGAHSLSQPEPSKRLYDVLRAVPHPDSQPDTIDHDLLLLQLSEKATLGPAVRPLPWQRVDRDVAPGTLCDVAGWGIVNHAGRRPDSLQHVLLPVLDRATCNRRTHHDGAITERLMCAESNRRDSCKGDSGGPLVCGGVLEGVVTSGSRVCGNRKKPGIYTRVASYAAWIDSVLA

As usually defined, the IC50 is the concentration that inhibits the measured activity by half. High values mean a need for much substance, low ones inhibition by little substance. Take `NC(=O)c1nn(CC(=O)N2[C@@H]3C[C@@H]3C[C@H]2C(=O)Nc2cccc(Br)n2)c2ccccc12` [1-(2-((1R,3S,5R)-3-((6-Bromopyridin-2-yl)carbamoyl)-2-azabicyclo[3.1.0]hexan-2-yl)-2-oxoethyl)-1H-indazole-3-carboxamide (7)]: in test [1], the IC50 was > 100 µM.

`C[C@@H](NC(=O)[C@@H]1C[C@H]2C[C@H]2N1C(=O)Cn1nc(C(N)=O)c2ccncc21)c1cccc(Cl)c1F` [1-(2-((1R,3S,5R)-3-(((R)-1-(3-Chloro-2-fluorophenyl)ethyl)carbamoyl)-2-azabicyclo[3.1.0]hexan-2-yl)-2-oxoethyl)-1H-pyrazolo[3,4-c]pyridine-3-carboxamide (6)]: the IC50 in test [2] is > 100 µM; in test [3] it was 0.86 µM; in test [1], > 100 µM.

For `NC(=O)c1cc2cc(OCc3cccc(C(=O)O)c3)ccc2[nH]1` [3-(((2-Carbamoyl-1H-indol-5-yl)oxy)methyl)benzoic acid (4)], the half-inhibitory concentration (IC50) in test [2] is > 100 µM.

As to `COc1ccc(CCNC(=O)[C@@H]2CCCN2C(=O)NCc2cccc3ccccc23)cc1` [(S)-N2-(4-methoxyphenethyl)-N1-(naphthalen-1-ylmethyl)pyrrolidine-1,2-dicarboxamide (1)], the half-maximal inhibitory concentration (IC50) in test [4] was > 30 µM; in test [1], 0.7 µM.

Take `Cn1cc(NC(=O)N2CCC[C@H]2C(=O)NC(c2ccccc2)c2ccccc2)c2ccccc21` [(S)-N2-benzhydryl-N1-(1-methyl-1H-indol-3-yl)pyrrolidine-1,2-dicarboxamide (5)]: the IC50 is > 100 µM in test [2], 5.8 µM in test [4] and > 100 µM in test [1].

On to `COC(=O)c1ccccc1CNC(=O)N1CCC[C@H]1C(=O)Nc1cccc(OC(F)(F)F)c1` [Methyl (S)-2-((2-((3-(trifluoromethoxy)phenyl)carbamoyl)pyrrolidine-1-carboxamido)-methyl)benzoate (2)], for which the IC50 is > 100 µM in test [2] and 8.7 µM in test [1].
